Experimental data from ChEMBL document CHEMBL4390635, “α-Glucosidase inhibition activity and in silico study of 2-(benzo[d][1,3]dioxol-5-yl)-4H-chromen-4-one, a synthetic derivative of flavone” (Bioorg Med Chem, 2019).
The source made the active and inactive calls. The rule behind the calls is not given here.

Experiments:
[1] = molecular target: Alpha glucosidase (Homo sapiens, UniProt O43451+P10253+P14410+Q2M2H8); test: Inhibition of alpha-glucosidase (unknown origin) incubated for 20 mins before pNPG substrate addition and measured after 30 mins by UV spectrometry; type: protein assay
[2] = system: Saccharomyces cerevisiae; test: Inhibition of Saccharomyces cerevisiae alpha-glucosidase at 669.57 uM incubated for 30 mins before pNPG substrate addition and measured after 10 mins by spectrophotometry relative to untreated control
[3] = system: Saccharomyces cerevisiae; test: Competitive inhibition of Saccharomyces cerevisiae alpha-glucosidase incubated for 30 mins before pNPG substrate addition and measured after 10 mins by spectrophotometry based Michaelis-Menten equation and Lineweaver-Burk plot analysis
[4] = system: Saccharomyces cerevisiae; test: Non-competitive inhibition of Saccharomyces cerevisiae alpha-glucosidase assessed as substrate Vmax incubated for 15 mins before pNPG substrate addition and measured for 180 secs by spectrophotometry based Michaelis-Menten equation and Lineweaver-Burk plot analysis
[5] = system: Saccharomyces cerevisiae; test: Inhibition of Saccharomyces cerevisiae alpha-glucosidase incubated for 30 mins before pNPG substrate addition and measured after 10 mins by spectrophotometry
[6] = system: Saccharomyces cerevisiae; test: Inhibition of Saccharomyces cerevisiae alpha-glucosidase at 3.54 uM incubated for 30 mins before pNPG substrate addition and measured after 10 mins by spectrophotometry relative to untreated control
[7] = system: Saccharomyces cerevisiae; test: Inhibition of Saccharomyces cerevisiae alpha-glucosidase at 27.62 uM incubated for 30 mins before pNPG substrate addition and measured after 10 mins by spectrophotometry relative to untreated control
[8] = system: Saccharomyces cerevisiae; test: Non-competitive inhibition of Saccharomyces cerevisiae alpha-glucosidase assessed as substrate Km incubated for 15 mins before pNPG substrate addition and measured for 180 secs by spectrophotometry based Michaelis-Menten equation and Lineweaver-Burk plot analysis

H-RVPSLM-OH
IC50 [1]: 23.07 µM

C[C@H]1O[C@H](O[C@H]2[C@H](O)[C@@H](O)[C@@H](O[C@H]3[C@H](O)[C@@H](O)C(O)O[C@@H]3CO)O[C@@H]2CO)[C@H](O)[C@@H](O)[C@@H]1N[C@H]1C=C(CO)[C@@H](O)[C@H](O)[C@H]1O (some centres undefined)
inhibition [2]: 97.7%
inhibition [3]: Active

O=c1cc(-c2ccc3c(c2)OCO3)oc2ccccc12
Vmax [4]: 0.028 µmol/min
inhibition [5]: Dose-dependent effect
inhibition [6]: 8.4%
inhibition [7]: 99.3%
Km [8]: 71.4 µM⁻¹

Cc1cc(=O)oc2c(O)c(O)ccc12 [4-METHYLDAPHNETIN]
IC50 [1]: 52 µM
